From patent publication US4851518A, “Di and tri-O-acetyl-"O-iso-valeryl-23-O-demycinosyl tylosins, hydrazone derivatives thereof and processes for their preparation” (priority 1985, dated 1989)

How the values were obtained:
[1] = Serum levels IV in mice (AUCs, 0-3h.), cylinder cup method; assay type: in vivo, male mice (Carworth CF-1); details: for AUC at 3 h: mouse, in vivo, intravenous single bolus 100 mg./kg.; for AUC at 3 h / serum levels compared with erythromycin, rosaramicin, tylosin, 3-O-acetyl-4"-O-iso-valeryltylosin, 3-O-acetyl-23-O-demycinosyl-4"-O-iso-valeryltylosin, intravenously to mice: 10 mg./ml. in vehicle; for serum levels compared with erythromycin, rosaramicin, tylosin, 3-O-acetyl-4"-O-iso-valeryltylosin, 3-O-acetyl-23-O-demycinosyl-4"-O-iso-valeryltylosin, intravenously to mice: 100 mg./kg.
Description: (§1) The serum levels of the compounds of this invention were determined in male mice (Carworth CF-1) weighing 18-20 g. each, and squirrel monkeys weighing ca. 1 kg. each. Groups of six mice were given aqueous solutions of the drugs intravenously as single bolus doses of 100 mg./kg., and groups of six monkeys were given the drugs orally as a single dose of 20, or 50 mg./kg. After 1, 3, 5, 10, 20, 30, 45, 60, 90, 120 and 180 min., mice were killed by cutting the jugular vein and the blood allowed to drain into 8 mm. (diameter) tubes which had been standing in a ice water bath. At each time point, blood from the group of mice was pooled. For monkeys, blood samples were taken after 15, 30, 45, 60, 90, 120, 180, 240 and 360 minutes and were not pooled. The samples were left to clot at room temperature for 15 min. After clotting, the samples were centrifuged for 10 min. Serum was removed and put into another test tube in an ice water bath, until antibiotic levels were determined by a cylinder cup method, with either Bacillus subtilis ATCC 6633, or Micrococcus luteus ATCC 9431 as the test organisms. Stock solutions of each antibacterial were prepared daily in the appropriate vehicle and diluted in homologous serum to prepare a standard curve. Serum samples, diluted where necessary in the appropriate serum, were compared to a standard curve of known potency by standard assay procedures. All assays were done at least twice.
(§2) AUCs (areas under the curves) were obtained from serum level vs. time data by the trapezoidal rule.

[2] = Serum levels PO in squirrel monkeys (AUCs, 0-6h.), cylinder cup method; assay type: in vivo; details: for AUC at 6 h: monkey, po
Description: as §1, with “Serum was removed and put into another test tube in an ice water bath, until antibiotic levels were determined by a cylinder cup method, with either Bacillus subtilis ATCC 6633, or Micrococcus luteus ATCC 9431 as the test organisms.” left out
as §2

[3] = cited from earlier work
[4] = serum, 20 mg/kg, oral single dose 20 mg./kg., 3.5 mg./ml. in vehicle, crossover experiment
[5] = serum, 20 mg/kg, oral single dose 20 mg./kg., 20 mg./ml. in PEG 40 castor oil/lactic acid vehicle
[6] = in vivo, 20 mg/kg, oral single dose 20 mg./kg., 20 mg./ml. in PEG 40 castor oil/lactic acid vehicle

| Structure (SMILES) | AUC at 3 h [1] | AUC at 6 h [2, 5] | also measured |
| --- | --- | --- | --- |
| CC[C@H]1OC(=O)C[C@@H](OC(C)=O)[C@H](C)[C@@H](O[C@@H]2O[C@H](C)[C@@H](O[C@H]3C[C@@](C)(O)[C@@H](OC(=O)CC(C)C)[C@H](C)O3)[C@H](N(C)C)[C@H]2O)[C@@H](CC=O)C[C@@H](C)C(=O)/C=C/C(C)=C/[C@@H]1CO[C@@H]1O[C@H](C)[C@@H](O)[C@@H](OC)[C@H]1OC [IV, 3-O-Acetyl-4"-O-iso-valeryltylosin, reference compound] | 52400 ng·h/mL | 15800 ng·h/mL | AUC at 6 h [2, 4]: 7600 ng·h/mL |
| CC[C@H]1OC(=O)C[C@@H](OC(C)=O)[C@H](C)[C@@H](O[C@@H]2O[C@H](C)[C@@H](O[C@H]3C[C@@](C)(O)[C@@H](OC(=O)CC(C)C)[C@H](C)O3)[C@H](N(C)C)[C@H]2OC(C)=O)[C@@H](CC=O)C[C@@H](C)C(=O)/C=C/C(C)=C/[C@@H]1COC(C)=O [VII, 3,23,2'-Tri-O-acetyl-23-O-demycinosyl-4"-O-iso-valeryltylosin] | 69400 ng·h/mL |  | serum levels compared with erythromycin, rosaramicin, tylosin, 3-O-acetyl-4"-O-iso-valeryltylosin, 3-O-acetyl-23-O-demycinosyl-4"-O-iso-valeryltylosin, intravenously to mice [1]: serum levels that are superior; serum levels compared with erythromycin, rosaramicin, tylosin, 3-O-acetyl-23-O-demycinosyl-4"-O-iso-valeryltylosin, 3-O-acetyl-4"-O-iso-valeryltylosin, intravenously to mice ([1]; intravenous, dose not given): higher serum levels; serum levels compared with 3-O-acetyl-4"-O-iso-valeryltylosin, orally to squirrel monkeys ([2]; 20 mg./kg., 3.5 mg./ml. in vehicle): superior serum levels; AUC at 6 h [2, 4]: 13500 ng·h/mL; serum levels compared with 3-O-acetyl-4"-O-iso-valeryltylosin, orally to squirrel monkeys ([2]; oral, dose not given): superior serum levels |
| CC[C@H]1OC(=O)[C@H](C)[C@@H](O[C@H]2C[C@@](C)(OC)[C@@H](O)[C@H](C)O2)[C@H](C)[C@@H](O[C@@H]2O[C@H](C)C[C@H](N(C)C)[C@H]2O)[C@](C)(O)C[C@@H](C)C(=O)[C@H](C)[C@@H](O)[C@]1(C)O [I, Erythromycin, reference compound] | 36100 ng·h/mL |  | AUC at 6 h ([2]; in vivo, 20 mg/kg, oral single dose 20 mg./kg., 3.5 mg./ml. in vehicle): 1500 ng·h/mL; AUC at 6 h ([2]; in vivo, 20 mg/kg, oral single dose 20 mg./kg., 10 mg./ml. in vehicle): 4800 ng·h/mL; AUC at 6 h [2, 6]: 4900 ng·h/mL |
| CC[C@H]1OC(=O)C[C@@H](OC(C)=O)[C@H](C)[C@@H](O[C@@H]2O[C@H](C)[C@@H](O[C@H]3C[C@@](C)(O)[C@@H](OC(=O)CC(C)C)[C@H](C)O3)[C@H](N(C)C)[C@H]2O)[C@@H](CC=NN2CCS(=O)(=O)CC2)C[C@@H](C)C(=O)/C=C/C(C)=C/[C@@H]1CO [IX, 3-O-Acetyl-23-O-demycinosyl-20-deoxo-20-[(4,4-dioxothiomorpholinyl)imino]-4"-O-iso-valeryltylosin] | 40100 ng·h/mL | 2500 ng·h/mL |  |
| CC[C@H]1OC(=O)C[C@@H](OC(C)=O)[C@H](C)[C@@H](O[C@@H]2O[C@H](C)[C@@H](O[C@H]3C[C@@](C)(O)[C@@H](OC(=O)CC(C)C)[C@H](C)O3)[C@H](N(C)C)[C@H]2O)[C@@H](CC=NN2CCS(=O)(=O)CC2)C[C@@H](C)C(=O)/C=C/C(C)=C/[C@@H]1COC(C)=O [XI, 3,23-Di-O-acetyl-23-O-demycinosyl-20-deoxo-20-[(4,4-dioxothiomorpholinyl)imino]-4"-O-iso-valeryltylosin] | 61800 ng·h/mL | 4600 ng·h/mL |  |
| CC[C@H]1OC(=O)C[C@@H](O)[C@H](C)[C@@H](O[C@@H]2O[C@H](C)C[C@H](N(C)C)[C@H]2O)[C@@H](CC=O)C[C@@H](C)C(=O)/C=C/[C@]2(C)O[C@H]2[C@@H]1C [II, Rosaramicin, reference compound] |  | 2200 ng·h/mL | AUC at 6 h ([2]; serum, 50 mg/kg, oral single dose 50 mg./kg., 50 mg./ml. in vehicle): 6600 ng·h/mL |
| CC[C@H]1OC(=O)C[C@@H](OC(C)=O)[C@H](C)[C@@H](O[C@@H]2O[C@H](C)[C@@H](O[C@H]3C[C@@](C)(O)[C@@H](OC(=O)CC(C)C)[C@H](C)O3)[C@H](N(C)C)[C@H]2O)[C@@H](CC=O)C[C@@H](C)C(=O)/C=C/C(C)=C/[C@@H]1CO [V, 3-O-Acetyl-23-O-demycinosyl-4"-O-isovaleryltylosin, reference compound] | 28300 ng·h/mL | 5500 ng·h/mL |  |
| CC[C@H]1OC(=O)C[C@@H](O)[C@H](C)[C@@H](O[C@@H]2O[C@H](C)[C@@H](O[C@H]3C[C@@](C)(O)[C@@H](O)[C@H](C)O3)[C@H](N(C)C)[C@H]2O)[C@@H](CC=O)C[C@@H](C)C(=O)/C=C/C(C)=C/[C@@H]1CO[C@@H]1O[C@H](C)[C@@H](O)[C@@H](OC)[C@H]1OC [III, Tylosin] | 24200 ng·h/mL |  | AUC at 6 h [2, 6]: 2600 ng·h/mL; AUC at 6 h ([2]; in vivo, 50 mg/kg, oral single dose 50 mg./kg., 50 mg./ml. in vehicle): 15600 ng·h/mL; stability in acidic and basic solution [3]: readily transformed in acidic and basic solution into aldol condensation and Michael addition products |
| CC[C@H]1OC(=O)C[C@@H](OC(C)=O)[C@H](C)[C@@H](O[C@@H]2O[C@H](C)[C@@H](O[C@H]3C[C@@](C)(O)[C@@H](OC(=O)CC(C)C)[C@H](C)O3)[C@H](N(C)C)[C@H]2O)[C@@H](CC=NN2CCS(=O)(=O)CC2)C[C@@H](C)C(=O)/C=C/C(C)=C/[C@@H]1CO[C@@H]1O[C@H](C)[C@@H](O)[C@@H](OC)[C@H]1OC [VIII, 3-O-Acetyl-20-deoxo-20-[(4,4-dioxothiomorpholinyl)imino]-4"-O-iso-valeryltylosin] | 67600 ng·h/mL | 7500 ng·h/mL |  |
| CC[C@H]1OC(=O)C[C@@H](OC(C)=O)[C@H](C)[C@@H](O[C@@H]2O[C@H](C)[C@@H](O[C@H]3C[C@@](C)(O)[C@@H](OC(=O)CC(C)C)[C@H](C)O3)[C@H](N(C)C)[C@H]2OC(C)=O)[C@@H](CC=O)C[C@@H](C)C(=O)/C=C/C(C)=C/[C@@H]1CO [VI, 3,2'-Di-O-acetyl-23-O-demycinosyl-4"-O-iso-valeryltylosin] |  | 10400 ng·h/mL | serum levels compared with 3-O-acetyl-4"-O-iso-valeryltylosin, orally to squirrel monkeys ([2]; 20 mg./kg., 20 mg./ml. in vehicle): slightly lower serum levels; serum levels compared with 3-O-acetyl-4"-O-iso-valeryltylosin, orally to squirrel monkeys ([2]; oral, dose not given): slightly lower serum levels |
| CC[C@H]1OC(=O)C[C@@H](OC(C)=O)[C@H](C)[C@@H](O[C@@H]2O[C@H](C)[C@@H](O[C@H]3C[C@@](C)(O)[C@@H](OC(=O)CC(C)C)[C@H](C)O3)[C@H](N(C)C)[C@H]2OC(C)=O)[C@@H](CC=NN2CCS(=O)(=O)CC2)C[C@@H](C)C(=O)/C=C/C(C)=C/[C@@H]1CO [X, 3,2'-Di-O-acetyl-23-O-demycinosyl-20deoxo-20-[(4,4-dioxothiomorpholinyl)imino]-4"-O-iso-valeryltylosin] | 80500 ng·h/mL | 4800 ng·h/mL |  |
| CC[C@H]1OC(=O)C[C@@H](OC(C)=O)[C@H](C)[C@@H](O[C@@H]2O[C@H](C)[C@@H](O[C@H]3C[C@@](C)(O)[C@@H](OC(=O)CC(C)C)[C@H](C)O3)[C@H](N(C)C)[C@H]2OC(C)=O)[C@@H](CC=NN2CCS(=O)(=O)CC2)C[C@@H](C)C(=O)/C=C/C(C)=C/[C@@H]1COC(C)=O [XII, 3,23,2'-Tri-O-acetyl-23-O-demycinosyl-20-deoxo-20-[(4,4-dioxothiomorpholinyl)imino]-4"-O-iso-valeryltylosin] | 154000 ng·h/mL |  | serum levels compared with erythromycin, rosaramicin, tylosin, 3-O-acetyl-4"-O-iso-valeryltylosin, 3-O-acetyl-23-O-demycinosyl-4"-O-iso-valeryltylosin, intravenously to mice [1]: serum levels that are superior; AUC at 6 h ([2]; serum, 20 mg/kg, oral single dose 20 mg./kg., 3.5 mg./ml. in vehicle): 3800 ng·h/mL |
| CC[C@H]1OC(=O)C[C@@H](OC(C)=O)[C@H](C)[C@@H](O[C@@H]2O[C@H](C)[C@@H](O[C@H]3C[C@@](C)(O)[C@@H](OC(=O)CC(C)C)[C@H](C)O3)[C@H](N(C)C)[C@H]2O)[C@@H](CC=NN2CCS(=O)(=O)CC2)C[C@@H](C)C(=O)/C=C/C(C)=C/[C@@H]1COC(=O)Cc1ccccc1 [XIII, 3-O-Acetyl-23-O-demycinosyl-20-deoxo-20-[(4,4-dioxothiomorpholinyl)imino]-23-O-phenylacetyl-4"-O-iso-valeryltylosin] | 43400 ng·h/mL |  |  |
